Assay results from US9045474B2, “Compounds and compositions for mitigating tissue damage and lethality” (The Regents of the University of California, priority 2010, dated 2015).

Tests used:
[1] = Mitigation assay of analogs at +30 min and +60 min after 8 Gy IR; details: FIG. 20
Procedure: Fourteen analogs of Yel001 and Yel002, whose structures are shown in FIGS. 19A and 19B, are subject to tests in a mitigation assay at +30 min and +60 min after 8 Gy radiation (IR).

C3H mice = experiment: Mitigation of radiation-induced lethality in C3H mice (8Gy, LD100/30); details: 8Gy
Procedure: Radiomitigation studies were conduced by pre-treating C3H mice with the compounds of interest at as concentration of 75 mg/kg and at 24 hrs and 1 hr before an 8 Gy exposure. On a 5×24 mitigation treatment protocol mice were first lethally irradiated with 8 Gy and 24 hrs later received the first subcutaneous injection with the compound suspension with subsequent injections at 48, 72, 96, and 120 hrs. The concentration of the compound in the suspension was 75 mg/kg carrier with either 1N saline or phosphate buffer solution (PBS).
C3H mice in the mitigation experiment were irradiated with 8Gy and then injected with 75 mg/kg 1 hr post exposure and then again 25 hrs post exposure.

In the case of `Cc1sc(NC(=O)CN(Cc2ccco2)C(=O)c2ccccc2)c(C(N)=O)c1C` [CJ010], the “mitigation of IR damage” value [1] is reported as “consistently mitigates the IR damage”, the “mitigation efficacy” value (C3H mice; 75 mg/kg s.c. 5×24 protocol) is reported as “significantly mitigated IR-induced damages and death” and the “survival at 30 days” value (C3H mice; 75 mg/kg s.c. at 24, 48, 72, 96, 120 hrs (5×24)) is reported as 75%.
